Assays:
SETVI (Foxtail, Green) = assay: Preemergence herbicidal evaluation; assay type: in vivo, Setaria viridis; conditions: rated 4-5 weeks after treatment
Method in brief: (§1)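 In this greenhouse assay, monocot and dicot seeds are planted in soil and treated prior to emergence with an aqueous acetone spray (about 0.0156-0.500 kg/ha). Plants are assessed visually against control on a 0-9 scale after 4-5 weeks.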

GALAP (Galium) = assay: Preemergence herbicidal evaluation; assay type: in vivo, Galium aparine; conditions: rated 4-5 weeks after treatment
Method in brief: as §1

ZEAMX (Corn, Field) = assay: Preemergence herbicidal evaluation; assay type: in vivo, Zea mays; conditions: rated 4-5 weeks after treatment
Method in brief: as §1

MOOVA (Monochoria) = assay: Preemergence weed control under flooded paddy conditions; assay type: in vivo, Monochoria vaginalis; conditions: rated 3-4 weeks after treatment
Method in brief: (§2)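 Visual injury scored 0-9 against control three to four weeks post-treatment, greenhouse-grown. Application: acetone/water (50/50) solutions dosed directly into flood water (1.5-3 cm over silt loam, planted top 0.5 cm), roughly 0.0313 to 0.500 kg/ha active ingredient.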

ECHCG (Barnyardgrass) = assay: Postemergence herbicidal evaluation; assay type: in vivo, Echinochloa crus-galli; conditions: postemergence
Method in brief: (§3)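 Compound is applied as a foliar spray to seedlings about two weeks old, formulated in equal parts acetone and water with 0.5% TWEEN 20 and delivered at 40 psi to give about 0.0156–0.500 kg per hectare. Injury is rated visually 0–9 after four to five weeks.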

CYPIR (Rice Flatsedge) = assay: Preemergence weed control under flooded paddy conditions; assay type: in vivo, Cyperus iria; conditions: rated 3-4 weeks after treatment
Method in brief: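 Flooded-pot preemergence screen with silt loam and seeds in the upper 0.5 cm. Dose about 0.0313 to 0.500 kg/ha, delivered into flood water; visual 0-9 score after 3 to 4 weeks.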

CASOB (Sicklepod) = assay: Postemergence herbicidal evaluation; assay type: in vivo, Cassia obtusifolia; conditions: postemergence
Method in brief: as §3

[1] = tested on: SAGPY (Arrowhead (Pygmaea)); assay: Preemergence weed control under flooded paddy conditions; assay type: in vivo, Sagittaria pygmaea; conditions: rated 3-4 weeks after treatment
Method in brief: as §2

ORYSAT (Rice, Tebonnet) [2] = assay: Postemergence herbicidal evaluation; assay type: in vivo, Oryza sativa, (L.) Tebonnet; conditions: postemergence
Method in brief: as §3

ORYSAT (Rice, Tebonnet) [3] = assay: Preemergence herbicidal evaluation; assay type: in vivo, Oryza sativa, (L.) Tebonnet; conditions: rated 4-5 weeks after treatment
Method in brief: as §1

[4] = tested on: GLXMAW (Soybean, Williams); assay: Preemergence herbicidal evaluation; assay type: in vivo, Glycine max, (L.) Merr. cv Williams; conditions: rated 4-5 weeks after treatment
Method in brief: as §1

[5] = tested on: CHEAL (Lambsquarters, Common); assay: Postemergence herbicidal evaluation; assay type: in vivo, Chenopodium album; conditions: postemergence
Method in brief: as §3

[6] = tested on: TRZAWR (Wheat, Winter, cv Riband); assay: Preemergence herbicidal evaluation; assay type: in vivo, Triticum aestivum; conditions: rated 4-5 weeks after treatment
Method in brief: as §1

[7] = rate 0.0156 kg/ha, rating scale 0-9
[8] = rate 0.0313 kg/ha, rating scale 0-9
[9] = rate 0.0625 kg/ha, rating scale 0-9
[10] = rate 0.1250 kg/ha, rating scale 0-9
[11] = rate 0.2500 kg/ha, rating scale 0-9

## CCOC(=O)CN1C(=O)C(Cl)SC1=Nc1cc(-n2c(=O)cc(C(F)(F)F)n(C)c2=O)c(F)cc1Cl (stereo not shown) [Compound 126, Ethyl 5-chloro-2-{{2-chloro-5-[3,6-dihydro-3-methyl-2,6-dioxo-4-(trifluoromethyl)-1(2H)-pyrimidinyl]-4-fluorophenyl}imino}-4-oxo-3-thiazolidineacetate]
SETVI (Foxtail, Green); rate 0.0625 kg/ha
  Preemergence herbicidal rating SETVI: 0.0
SETVI (Foxtail, Green); rate 0.1250 kg/ha
  Preemergence herbicidal rating SETVI: 0.0
SETVI (Foxtail, Green); rate 0.2500 kg/ha
  Preemergence herbicidal rating SETVI: 3.0
SETVI (Foxtail, Green); rate 0.5000 kg/ha
  Preemergence herbicidal rating SETVI: 9.0
GALAP (Galium); rate 0.0625 kg/ha
  Preemergence herbicidal rating GALAP: 0.0
GALAP (Galium); rate 0.1250 kg/ha
  Preemergence herbicidal rating GALAP: 0.0
GALAP (Galium); rate 0.2500 kg/ha
  Preemergence herbicidal rating GALAP: 9.0
GALAP (Galium); rate 0.5000 kg/ha
  Preemergence herbicidal rating GALAP: 9.0
ZEAMX (Corn, Field); rate 0.0625 kg/ha
  Preemergence herbicidal rating ZEAMX: 0.0
ZEAMX (Corn, Field); rate 0.1250 kg/ha
  Preemergence herbicidal rating ZEAMX: 2.0
ZEAMX (Corn, Field); rate 0.2500 kg/ha
  Preemergence herbicidal rating ZEAMX: 4.0
ZEAMX (Corn, Field); rate 0.5000 kg/ha
  Preemergence herbicidal rating ZEAMX: 8.0
MOOVA (Monochoria); 0.0313 kg/ha
  herbicidal effect rating, MOOVA: 3.0
MOOVA (Monochoria); 0.0625 kg/ha
  herbicidal effect rating, MOOVA: 4.0
MOOVA (Monochoria); 0.1250 kg/ha
  herbicidal effect rating, MOOVA: 6.0
MOOVA (Monochoria); 0.2500 kg/ha
  herbicidal effect rating, MOOVA: 7.0
ECHCG (Barnyardgrass); rate 0.0156 kg/ha
  herbicidal rating ECHCG: 0.0
ECHCG (Barnyardgrass); rate 0.0313 kg/ha
  herbicidal rating ECHCG: 0.0
ECHCG (Barnyardgrass); rate 0.0625 kg/ha
  herbicidal rating ECHCG: 0.0
ECHCG (Barnyardgrass); rate 0.1250 kg/ha
  herbicidal rating ECHCG: 0.0
CYPIR (Rice Flatsedge); 0.0313 kg/ha
  herbicidal effect rating, CYPIR: 0.0
CYPIR (Rice Flatsedge); 0.0625 kg/ha
  herbicidal effect rating, CYPIR: 0.0
CYPIR (Rice Flatsedge); 0.1250 kg/ha
  herbicidal effect rating, CYPIR: 0.0
CYPIR (Rice Flatsedge); 0.2500 kg/ha
  herbicidal effect rating, CYPIR: 2.0
CASOB (Sicklepod); rate 0.0156 kg/ha
  herbicidal rating CASOB: 0.0
CASOB (Sicklepod); rate 0.0313 kg/ha
  herbicidal rating CASOB: 0.0
CASOB (Sicklepod); rate 0.0625 kg/ha
  herbicidal rating CASOB: 2.0
CASOB (Sicklepod); rate 0.1250 kg/ha
  herbicidal rating CASOB: 4.0
[1]; 0.0313 kg/ha
  herbicidal effect rating, SAGPY: 0.0
[1]; 0.0625 kg/ha
  herbicidal effect rating, SAGPY: 0.0
[1]; 0.1250 kg/ha
  herbicidal effect rating, SAGPY: 3.0
[1]; 0.2500 kg/ha
  herbicidal effect rating, SAGPY: 3.0
ORYSAT (Rice, Tebonnet) [2]; rate 0.0156 kg/ha
  herbicidal rating ORYSAT: 0.0
ORYSAT (Rice, Tebonnet) [2]; rate 0.0313 kg/ha
  herbicidal rating ORYSAT: 0.5
ORYSAT (Rice, Tebonnet) [2]; rate 0.0625 kg/ha
  herbicidal rating ORYSAT: 0.5
ORYSAT (Rice, Tebonnet) [2]; rate 0.1250 kg/ha
  herbicidal rating ORYSAT: 1.0
ORYSAT (Rice, Tebonnet) [3]; rate 0.0625 kg/ha
  Preemergence herbicidal rating ORYSAT: 0.0
ORYSAT (Rice, Tebonnet) [3]; rate 0.1250 kg/ha
  Preemergence herbicidal rating ORYSAT: 0.0
ORYSAT (Rice, Tebonnet) [3]; rate 0.2500 kg/ha
  Preemergence herbicidal rating ORYSAT: 0.0
ORYSAT (Rice, Tebonnet) [3]; rate 0.5000 kg/ha
  Preemergence herbicidal rating ORYSAT: 3.0
[4]; rate 0.0625 kg/ha
  Preemergence herbicidal rating GLXMAW: 0.0
[4]; rate 0.1250 kg/ha
  Preemergence herbicidal rating GLXMAW: 2.0
[4]; rate 0.2500 kg/ha
  Preemergence herbicidal rating GLXMAW: 3.0
[4]; rate 0.5000 kg/ha
  Preemergence herbicidal rating GLXMAW: 7.0
[5]; rate 0.0156 kg/ha
  herbicidal rating CHEAL: 4.0
[5]; rate 0.0313 kg/ha
  herbicidal rating CHEAL: 4.0
[5]; rate 0.0625 kg/ha
  herbicidal rating CHEAL: 4.0
[5]; rate 0.1250 kg/ha
  herbicidal rating CHEAL: 9.0
[6]; rate 0.0625 kg/ha
  Preemergence herbicidal rating TRZAWR: 0.0
[6]; rate 0.1250 kg/ha
  Preemergence herbicidal rating TRZAWR: 0.0
[6]; rate 0.2500 kg/ha
  Preemergence herbicidal rating TRZAWR: 0.0
[6]; rate 0.5000 kg/ha
  Preemergence herbicidal rating TRZAWR: 0.0

## Cn1c(C(F)(F)F)cc(=O)n(-c2cc(N=C3SCC(=O)N3Cc3ccc(S(N)(=O)=O)cc3)c(Cl)cc2F)c1=O [Compound 135, Alpha-{2-{{2-chloro-5-[3,6-dihydro-3-methyl-2,6-dioxo-4-(trifluoromethyl)-1(2H)-pyrimidinyl]-4-fluorophenyl}imino}-4-oxo-3-thiazolidinyl}-p-toluenesulfonamide]
SETVI (Foxtail, Green); [7]
  Preemergence herbicidal rating SETVI: 0.0
SETVI (Foxtail, Green); [8]
  Preemergence herbicidal rating SETVI: 0.0
SETVI (Foxtail, Green); [9]
  Preemergence herbicidal rating SETVI: 2.0
SETVI (Foxtail, Green); [10]
  Preemergence herbicidal rating SETVI: 4.0
SETVI (Foxtail, Green); [11]
  Preemergence herbicidal rating SETVI: 7.0
GALAP (Galium); [7]
  Preemergence herbicidal rating GALAP: 0.0
GALAP (Galium); [8]
  Preemergence herbicidal rating GALAP: 0.0
GALAP (Galium); [9]
  Preemergence herbicidal rating GALAP: 0.0
GALAP (Galium); [10]
  Preemergence herbicidal rating GALAP: 0.0
GALAP (Galium); [11]
  Preemergence herbicidal rating GALAP: 1.0
ZEAMX (Corn, Field); [7]
  Preemergence herbicidal rating ZEAMX: 1.0
ZEAMX (Corn, Field); [8]
  Preemergence herbicidal rating ZEAMX: 1.0
ZEAMX (Corn, Field); [9]
  Preemergence herbicidal rating ZEAMX: 0.0
ZEAMX (Corn, Field); [10]
  Preemergence herbicidal rating ZEAMX: 2.0
ZEAMX (Corn, Field); [11]
  Preemergence herbicidal rating ZEAMX: 1.0
MOOVA (Monochoria); 0.0313 kg/ha
  herbicidal effect rating, MOOVA: 6.0
MOOVA (Monochoria); 0.0625 kg/ha
  herbicidal effect rating, MOOVA: 9.0
MOOVA (Monochoria); 0.1250 kg/ha
  herbicidal effect rating, MOOVA: 9.0
MOOVA (Monochoria); 0.2500 kg/ha
  herbicidal effect rating, MOOVA: 8.0
ECHCG (Barnyardgrass); rate 0.0156 kg/ha
  herbicidal rating ECHCG: 1.0
ECHCG (Barnyardgrass); rate 0.0313 kg/ha
  herbicidal rating ECHCG: 2.0
ECHCG (Barnyardgrass); rate 0.0625 kg/ha
  herbicidal rating ECHCG: 2.0
CYPIR (Rice Flatsedge); 0.0313 kg/ha
  herbicidal effect rating, CYPIR: 5.0
CYPIR (Rice Flatsedge); 0.0625 kg/ha
  herbicidal effect rating, CYPIR: 6.0
CYPIR (Rice Flatsedge); 0.1250 kg/ha
  herbicidal effect rating, CYPIR: 7.0
CYPIR (Rice Flatsedge); 0.2500 kg/ha
  herbicidal effect rating, CYPIR: 7.0
CASOB (Sicklepod); rate 0.0156 kg/ha
  herbicidal rating CASOB: 2.0
CASOB (Sicklepod); rate 0.0313 kg/ha
  herbicidal rating CASOB: 4.0
CASOB (Sicklepod); rate 0.0625 kg/ha
  herbicidal rating CASOB: 4.0
[1]; 0.0313 kg/ha
  herbicidal effect rating, SAGPY: 0.0
[1]; 0.0625 kg/ha
  herbicidal effect rating, SAGPY: 3.0
[1]; 0.1250 kg/ha
  herbicidal effect rating, SAGPY: 5.0
[1]; 0.2500 kg/ha
  herbicidal effect rating, SAGPY: 6.0
ORYSAT (Rice, Tebonnet) [2]; rate 0.0156 kg/ha
  herbicidal rating ORYSAT: 2.0
ORYSAT (Rice, Tebonnet) [2]; rate 0.0313 kg/ha
  herbicidal rating ORYSAT: 2.0
ORYSAT (Rice, Tebonnet) [2]; rate 0.0625 kg/ha
  herbicidal rating ORYSAT: 2.5
ORYSAT (Rice, Tebonnet) [3]; [7]
  Preemergence herbicidal rating ORYSAT: 1.0
ORYSAT (Rice, Tebonnet) [3]; [8]
  Preemergence herbicidal rating ORYSAT: 1.0
ORYSAT (Rice, Tebonnet) [3]; [9]
  Preemergence herbicidal rating ORYSAT: 1.0
ORYSAT (Rice, Tebonnet) [3]; [10]
  Preemergence herbicidal rating ORYSAT: 1.0
ORYSAT (Rice, Tebonnet) [3]; [11]
  Preemergence herbicidal rating ORYSAT: 7.0
[4]; [7]
  Preemergence herbicidal rating GLXMAW: 0.0
[4]; [8]
  Preemergence herbicidal rating GLXMAW: 0.0
[4]; [9]
  Preemergence herbicidal rating GLXMAW: 0.0
[4]; [10]
  Preemergence herbicidal rating GLXMAW: 1.0
[4]; [11]
  Preemergence herbicidal rating GLXMAW: 3.0
[5]; rate 0.0156 kg/ha
  herbicidal rating CHEAL: 4.0
[5]; rate 0.0313 kg/ha
  herbicidal rating CHEAL: 7.0
[5]; rate 0.0625 kg/ha
  herbicidal rating CHEAL: 9.0
[6]; [7]
  Preemergence herbicidal rating TRZAWR: 0.0
[6]; [8]
  Preemergence herbicidal rating TRZAWR: 0.0
[6]; [9]
  Preemergence herbicidal rating TRZAWR: 0.0
[6]; [10]
  Preemergence herbicidal rating TRZAWR: 0.0
[6]; [11]
  Preemergence herbicidal rating TRZAWR: 1.0
